In patent US20250297116A1, “PRECURSOR COMPOUNDS FOR MOLECULAR COATINGS” (Apeel Technology, Inc., priority 2015, published 2025):

Assays:
[1] = test system: edible substrates (blueberries, bananas, strawberries, lemons, avocados, and limes); assay: Coating studies on edible substrates: mass loss over time and visible residues; conditions: coated edible substrates
Protocol: For these studies, mixtures (which were typically solid but in some cases were oils) comprising compounds of Formula I and/or compounds of Formula II and/or other additives (e.g., 1-monoacylglycerides, fatty acids, esters, amides, amines, thiols, carboxylic acids, ethers, aliphatic waxes, alcohols, salts (inorganic and organic), or combinations thereof) were first formed. The mixtures were then dissolved in a solvent (e.g., either ethanol or a water and ethanol mixture, for instance in a 1:2 water:ethanol ratio or lower) to form a solution, from which coatings were formed over a variety of edible substrates (blueberries, bananas, strawberries, lemons, avocados, and limes). Details about the specific formulations used and procedures for the forming of the coatings are described below for illustrative purposes with reference to FIGS. 2-18. The substrates were then examined for the presence of visible residues on the surface and tested for percent mass loss over time, and were compared to control samples without the coatings. A variety of different compositions of mixtures (e.g., solid mixtures) were used to form coatings on a variety of edible substrates, where the specific compositions and coating procedures are described below with reference to FIGS. 2-18. Some of the compositions were substantially pure (e.g., at least 90% or at least 95% pure) 2-monoacylglyceride compounds (e.g., compounds of Formula I). For example, coatings were formed from compositions that were substantially pure PA-2G, as well as from compositions that were substantially pure SA-2G. Some of the compositions were substantially pure (e.g., at least 90% or at least 95% pure) 1-monoacylglyceride compounds (e.g., compounds of Formula II). For example, coatings were formed from compositions that were substantially pure PA-1G, compositions that were substantially pure OA-1G, and compositions that were substantially pure SA-1G. Some of the compositions included a compound of Formula I and an additive, where for each of these compositions various ratios of the compound of Formula I to the additive were tested. For example, coatings were formed from compositions which included the combinations of a compound of Formula I and an additive as listed in Table 1 below. Additives included, for example, a saturated or unsaturated compound of Formula II, a saturated or unsaturated fatty acid, an ethyl ester, and/or a second compound of Formula I which is different from the (first) compound of Formula I (e.g., has a different length carbon chain).

finger limes = assay: Average daily mass loss rate and residues of coated finger limes; conditions: bag coated, 10 mg/mL in ethanol, over several days, 24 finger limes per group, 23-27°C, 40-55% humidity
Protocol: FIGS. 2-18 illustrate the effects of coating a variety of edible substrates with the compositions described herein. To form the coatings, solid mixtures of the compositions were first fully dissolved in ethanol at a concentration of 10 mg/mL (except where a different concentration is specified) to form a solution. The solution was then applied to the substrate either by spraying or dip coating, as detailed for each of the substrates below. The substrates were then dried on drying racks under ambient conditions (temperature in the range of 23° C.-27° C., humidity in the range of 40%-55%) until all of the solvent had evaporated, allowing the coatings to form over the substrates. […] For all mixtures described, PA was purchased from Sigma Aldrich, PA-1G was purchased from Tokyo Chemical Industry Co, PA-2G was prepared following the method of Example 1 above, SA was purchased from Sigma Aldrich, SA-1G was purchased from Alfa Aesar, SA-2G was prepared following the method of Example 3 above, MA was purchased from Sigma Aldrich, MA-1G was purchased from Tokyo Chemical Industry Co, OA was purchased from Sigma Aldrich, and EtPA was purchased from Sigma Aldrich.
FIG. 11 is a graph showing average daily mass loss rates for finger limes coated with various mixtures of PA-2G (compound of Formula I) and PA-1G (additive) measured over the course of several days. […]

CCCCCCCCCCCCCC(=O)OCC(O)CO (centres unmarked) [MA-1G, 2,3-dihydroxypropan-1-yl tetradecanoate]
reduction in mass loss versus uncoated control samples [1]: at most a nominal reduction in mass loss

CCCCCCCC/C=C\CCCCCCCC(=O)OCC(O)CO (centres unmarked) [OA-1G, 2,3-dihydroxypropan-1-yl (9Z)-Octadecenoate]
reduction in mass loss versus uncoated control samples [1]: at most a nominal reduction in mass loss

CCCCCCCCCCCCCCCC(=O)OCC(O)CO (centres unmarked) [PA-1G, 2,3-dihydroxypropan-1-yl palmitate]
average daily mass loss rate (finger limes): over 4 % per day
reduction in mass loss versus uncoated control samples [1]: at most a nominal reduction in mass loss

CCCCCCCCCCCCCCCC(=O)OC(CO)CO [PA-2G, 1,3-dihydroxypropan-2-yl palmitate]
average daily mass loss rate (finger limes): under 4 % per day
reduction in mass loss versus uncoated control samples [1]: at most a nominal reduction in mass loss

CCCCCCCCCCCCCCCCCC(=O)OCC(O)CO (centres unmarked) [SA-1G, 2,3-dihydroxypropan-1-yl octadecanoate]
reduction in mass loss versus uncoated control samples [1]: at most a nominal reduction in mass loss

CCCCCCCCCCCCCCCCCC(=O)OC(CO)CO [SA-2G, 1,3-dihydroxypropan-2-yl octadecanoate]
reduction in mass loss versus uncoated control samples [1]: at most a nominal reduction in mass loss
